Assay results from patent US8822517B2, “Arylosulfonamides for the treatment of CNS diseases” (Adamed SP. Z O.O., priority 2010, dated 2014).

Experiments:
[1] = target: dopaminergic D3 receptor (Homo sapiens, UniProt P35462); assay: Binding assay D3 (h), [3H]methyl-spiperone, CHO cells; design: expressed in transfected cells; host or cells: CHO cells; settings: read-out: D3 [%]
Description: (§1) The specific ligand binding to the receptors is defined as the difference between the total binding and the nonspecific binding determined in the presence of an excess of so unlabelled ligand.
(§2) The specific Ligand binding to the receptor is defined as the difference between total and non-specific binding determined in the presence of an excess of unlabelled ligand. The compounds were tested at a concentration of 1×10^−6 M, and scintillation counting was the method of detection of ligand binding.

[2] = target: serotoninergic 5-HT7 receptor (Homo sapiens, UniProt P34969); assay: Binding assay 5-HT7 (h), [3H]LSD, CHO cells; design: expressed in transfected cells; host or cells: CHO cells; settings: read-out: 5-HT7
Description: as §1, §2

[3] = target: T1, serotoninergic 5-HT1A receptor (Homo sapiens, UniProt P08908); assay: Binding assay 5-HT1A (h), [3H]8-OH-DPAT, HEK-293 cells; design: expressed in transfected cells; host or cells: HEK-293 cells; settings: read-out: 5-HT1A
T1 sequence (P08908 1-422): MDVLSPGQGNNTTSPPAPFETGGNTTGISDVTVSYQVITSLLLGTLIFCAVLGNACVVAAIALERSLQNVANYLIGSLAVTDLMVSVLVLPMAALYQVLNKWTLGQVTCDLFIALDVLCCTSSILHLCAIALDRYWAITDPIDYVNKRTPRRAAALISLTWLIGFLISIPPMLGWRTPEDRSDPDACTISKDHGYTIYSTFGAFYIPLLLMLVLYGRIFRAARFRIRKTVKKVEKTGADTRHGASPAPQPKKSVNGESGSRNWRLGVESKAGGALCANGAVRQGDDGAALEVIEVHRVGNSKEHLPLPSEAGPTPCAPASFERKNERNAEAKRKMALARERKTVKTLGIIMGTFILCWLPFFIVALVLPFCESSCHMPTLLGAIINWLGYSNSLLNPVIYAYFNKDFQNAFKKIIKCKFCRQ
Description: as §1, §2

[4] = target: serotoninergic 5-HT6 receptor (Homo sapiens, UniProt P50406); assay: Binding assay 5-HT6 (h), [3H]LSD, CHO cells; design: expressed in transfected cells; host or cells: CHO cells; settings: read-out: 5-HT6
Description: as §1, §2

[5] = target: serotoninergic 5-HT2A receptor (Homo sapiens, UniProt P28223); assay: Binding assay 5-HT2A (h), [3H]ketanserin, HEK-293 cells; design: expressed in transfected cells; host or cells: HEK-293 cells; settings: read-out: 5-HT2A
Description: as §1, §2

[6] = target: T2, serotonine transporter (SERT) receptor (Homo sapiens, UniProt P31645); assay: Binding assay SERT (h), [3H]imipramine, CHO cells; settings: read-out: SERT [%]
T2 construct: expressed in transfected cells; host or cells: CHO cells
Description: as §1, §2

[7] = target: dopaminergic D2 receptor (Homo sapiens, UniProt P14416); assay: Binding assay D2S (h), [3H]methyl-spiperone, HEK-293 cells; design: expressed in transfected cells; host or cells: HEK-293 cells; settings: read-out: D2 [%]
Description: as §1, §2

[8] = tested on: adrenergic α1 receptor; assay: Binding assay α1 (non-selective), [3H]prazosin, rat cerebral cortex; settings: percent inhibition of control specific binding; compounds tested at 1×10^−6 M
Description: as §1, §2

Sequence of dopaminergic D3 receptor (P35462 whole entry): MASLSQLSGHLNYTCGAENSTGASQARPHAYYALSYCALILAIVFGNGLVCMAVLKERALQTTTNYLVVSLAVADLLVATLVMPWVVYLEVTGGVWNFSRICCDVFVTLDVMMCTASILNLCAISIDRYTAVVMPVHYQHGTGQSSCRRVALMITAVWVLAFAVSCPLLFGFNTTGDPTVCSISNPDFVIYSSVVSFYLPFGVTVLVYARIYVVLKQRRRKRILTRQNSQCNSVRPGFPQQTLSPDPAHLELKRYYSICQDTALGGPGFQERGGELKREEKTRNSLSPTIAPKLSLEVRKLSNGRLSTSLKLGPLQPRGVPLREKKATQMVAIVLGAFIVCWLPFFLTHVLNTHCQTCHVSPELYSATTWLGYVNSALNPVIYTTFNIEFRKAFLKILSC
Sequence of serotoninergic 5-HT7 receptor (P34969 whole entry): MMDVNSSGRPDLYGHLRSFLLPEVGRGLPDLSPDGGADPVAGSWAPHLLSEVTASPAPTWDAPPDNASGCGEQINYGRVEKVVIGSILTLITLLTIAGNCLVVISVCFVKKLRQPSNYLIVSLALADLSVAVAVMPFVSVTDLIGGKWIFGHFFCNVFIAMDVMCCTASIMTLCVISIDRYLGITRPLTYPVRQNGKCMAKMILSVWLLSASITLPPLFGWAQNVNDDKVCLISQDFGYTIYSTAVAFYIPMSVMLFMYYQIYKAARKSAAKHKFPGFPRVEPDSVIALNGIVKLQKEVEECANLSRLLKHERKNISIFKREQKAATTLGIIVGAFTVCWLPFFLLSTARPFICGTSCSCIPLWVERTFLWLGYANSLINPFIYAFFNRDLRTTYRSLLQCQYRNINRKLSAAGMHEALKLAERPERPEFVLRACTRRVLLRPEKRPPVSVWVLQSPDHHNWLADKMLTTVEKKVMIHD
Sequence of serotoninergic 5-HT6 receptor (P50406 whole entry): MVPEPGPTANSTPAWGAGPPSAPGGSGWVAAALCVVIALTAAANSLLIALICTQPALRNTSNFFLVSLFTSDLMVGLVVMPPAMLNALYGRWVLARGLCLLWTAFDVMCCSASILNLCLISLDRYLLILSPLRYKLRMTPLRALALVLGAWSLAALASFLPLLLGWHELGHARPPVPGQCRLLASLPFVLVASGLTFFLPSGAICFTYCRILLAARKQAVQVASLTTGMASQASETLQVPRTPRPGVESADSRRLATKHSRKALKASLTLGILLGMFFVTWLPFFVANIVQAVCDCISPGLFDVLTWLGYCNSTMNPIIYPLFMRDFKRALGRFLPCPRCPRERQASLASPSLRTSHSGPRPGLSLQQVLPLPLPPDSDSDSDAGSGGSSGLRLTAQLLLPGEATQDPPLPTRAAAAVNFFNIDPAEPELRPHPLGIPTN
Sequence of serotoninergic 5-HT2A receptor (P28223 whole entry): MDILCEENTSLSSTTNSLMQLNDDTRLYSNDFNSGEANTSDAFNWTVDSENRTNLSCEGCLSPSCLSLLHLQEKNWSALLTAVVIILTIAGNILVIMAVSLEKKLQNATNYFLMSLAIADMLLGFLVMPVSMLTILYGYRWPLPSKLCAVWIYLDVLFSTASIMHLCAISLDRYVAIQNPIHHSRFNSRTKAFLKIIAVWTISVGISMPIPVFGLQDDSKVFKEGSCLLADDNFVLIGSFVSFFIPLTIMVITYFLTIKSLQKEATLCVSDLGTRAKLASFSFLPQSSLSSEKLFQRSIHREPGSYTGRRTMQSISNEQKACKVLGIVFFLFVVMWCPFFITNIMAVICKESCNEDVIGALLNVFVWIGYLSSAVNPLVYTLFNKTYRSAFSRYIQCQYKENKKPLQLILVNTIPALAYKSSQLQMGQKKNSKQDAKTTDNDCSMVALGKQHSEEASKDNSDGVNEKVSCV
Sequence of dopaminergic D2 receptor (P14416 1-414 isoform P14416-2): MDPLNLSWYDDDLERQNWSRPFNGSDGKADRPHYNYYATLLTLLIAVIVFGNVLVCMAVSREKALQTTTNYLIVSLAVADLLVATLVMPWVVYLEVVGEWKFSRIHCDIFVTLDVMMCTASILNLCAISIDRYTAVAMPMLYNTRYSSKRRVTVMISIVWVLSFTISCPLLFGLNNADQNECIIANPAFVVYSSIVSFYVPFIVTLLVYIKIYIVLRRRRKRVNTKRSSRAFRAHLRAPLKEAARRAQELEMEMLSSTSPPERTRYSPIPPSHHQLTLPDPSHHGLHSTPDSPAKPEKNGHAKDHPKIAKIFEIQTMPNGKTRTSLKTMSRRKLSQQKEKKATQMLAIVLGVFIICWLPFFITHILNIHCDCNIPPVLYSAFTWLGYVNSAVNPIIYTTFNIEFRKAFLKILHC
T2 sequence (P31645 whole entry): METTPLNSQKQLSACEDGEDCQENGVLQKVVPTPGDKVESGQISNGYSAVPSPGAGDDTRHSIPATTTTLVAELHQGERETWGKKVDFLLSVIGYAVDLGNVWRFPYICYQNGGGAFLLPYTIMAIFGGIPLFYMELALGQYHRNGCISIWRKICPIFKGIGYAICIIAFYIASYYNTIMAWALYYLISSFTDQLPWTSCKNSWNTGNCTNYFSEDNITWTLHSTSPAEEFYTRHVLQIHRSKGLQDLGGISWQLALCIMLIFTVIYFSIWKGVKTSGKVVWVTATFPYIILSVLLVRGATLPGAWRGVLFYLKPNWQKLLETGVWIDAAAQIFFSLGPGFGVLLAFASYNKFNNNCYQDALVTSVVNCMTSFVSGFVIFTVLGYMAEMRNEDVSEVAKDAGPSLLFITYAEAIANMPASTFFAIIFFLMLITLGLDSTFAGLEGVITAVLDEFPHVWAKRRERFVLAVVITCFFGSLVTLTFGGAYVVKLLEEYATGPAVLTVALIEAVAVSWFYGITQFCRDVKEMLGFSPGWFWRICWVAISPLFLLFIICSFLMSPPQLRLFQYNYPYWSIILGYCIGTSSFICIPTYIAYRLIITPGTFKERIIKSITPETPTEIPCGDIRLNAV

O=S(=O)(NCCCN1CCC(c2noc3cc(F)ccc23)CC1)c1cccc(Cl)c1 [Compound 106, 3-Chloro-N-[3-[4-(6-fluoro-1,2-benzoxazol-3-yl)piperidin-1-yl]propyl]benzenesulphonamide]
inhibition at 1 µM [1]: 97% | inhibition at 1 µM [2]: 91% | inhibition at 1 µM [3]: 63% | inhibition at 1 µM [4]: 93% | inhibition at 1 µM [5]: 97% | inhibition at 1 µM [6]: 2% | inhibition at 1 µM [7]: 108%

O=S(=O)(NCCCN1CCC(c2noc3cc(F)ccc23)CC1)c1cccc(Br)c1 [Compound 110, 3-Bromo-N-[3-[4-(6-fluoro-1,2-benzoxazol-3-yl)piperidin-1-yl]propyl]benzenesulphonamide]
inhibition at 1 µM [1]: 97% | inhibition at 1 µM [2]: 91% | inhibition at 1 µM [3]: 55% | inhibition at 1 µM [4]: 96% | inhibition at 1 µM [5]: 99% | inhibition at 1 µM [6]: 8% | inhibition at 1 µM [7]: 109%

O=c1[nH]c2cccc(N3CCN(CCCCNS(=O)(=O)c4cccc(Cl)c4)CC3)c2[nH]1 [Compound 173, 3-Chloro-N-[4-[4-(2-oxo-1,3-dihydrobenzimidazol-4-yl)piperazin-1-yl]butyl]benzenesulphonamide]
inhibition at 1 µM [1]: 98% | α1 [%] [8]: 89%

O=c1[nH]c2cccc(N3CCN(CCCCNS(=O)(=O)c4cccc(F)c4)CC3)c2[nH]1 [Compound 175, 3-Fluoro-N-[4-[4-(2-oxo-1,3-dihydrobenzimidazol-4-yl)piperazin-1-yl]butyl]benzenesulphonamide]
inhibition at 1 µM [1]: 87% | α1 [%] [8]: 82%

O=S(=O)(NCCCN1CCN(c2nsc3ccccc23)CC1)c1ccc(Cl)cc1 [Compound 250, N-[3-[4-(1,2-Benzothiazol-3-yl)piperazin-1-yl]propyl]-4-chlorobenzenesulphonamide]
inhibition at 1 µM [1]: 85% | inhibition at 1 µM [2]: 88% | inhibition at 1 µM [3]: 98% | inhibition at 1 µM [4]: 73% | inhibition at 1 µM [5]: 92% | inhibition at 1 µM [6]: 23% | inhibition at 1 µM [7]: 97%

O=S(=O)(NCCCN1CCC(c2noc3cc(F)ccc23)CC1)c1ccc(Cl)cc1 [Compound 328, 4-Chloro-N-[3-[4-(6-fluoro-1,2-benzoxazol-3-yl)piperidin-1-yl]propyl]benzenesulphonamide]
inhibition at 1 µM [1]: 99% | inhibition at 1 µM [2]: 92% | inhibition at 1 µM [3]: 58% | inhibition at 1 µM [4]: 87% | inhibition at 1 µM [5]: 90% | inhibition at 1 µM [6]: 7% | inhibition at 1 µM [7]: 108%

O=S(=O)(NCCCN1CCC(c2noc3cc(F)ccc23)CC1)c1ccc(Br)cc1 [Compound 330, 4-Bromo-N-[3-[4-(6-fluoro-1,2-benzoxazol-3-yl)piperidin-1-yl]propyl]benzenesulphonamide]
inhibition at 1 µM [1]: 99% | inhibition at 1 µM [2]: 90% | inhibition at 1 µM [3]: 67% | inhibition at 1 µM [4]: 83% | inhibition at 1 µM [5]: 93% | inhibition at 1 µM [6]: -2% | inhibition at 1 µM [7]: 108%

O=S(=O)(NCCCN1CCC(c2noc3cc(F)ccc23)CC1)c1ccc(Cl)s1 [Compound 341, 5-Chloro-N-[3-[4-(6-fluoro-1,2-benzoxazol-3-yl)piperidin-1-yl]propyl]thiophene-2-sulphonamide]
inhibition at 1 µM [1]: 98% | inhibition at 1 µM [2]: 78% | inhibition at 1 µM [3]: 74% | inhibition at 1 µM [4]: 93% | inhibition at 1 µM [5]: 102% | inhibition at 1 µM [6]: 8% | inhibition at 1 µM [7]: 98%

Cc1c(S(=O)(=O)NCCCN2CCC(c3noc4cc(F)ccc34)CC2)sc2ccc(Cl)cc12 [Compound 348, 5-Chloro-N-[3-[4-(6-fluoro-1,2-benzoxazol-3-yl)piperidin-1-yl]propyl]-3-methylbenzothiophene-2-sulphonamide]
inhibition at 1 µM [1]: 102% | inhibition at 1 µM [2]: 87% | inhibition at 1 µM [3]: 36% | inhibition at 1 µM [4]: 96% | inhibition at 1 µM [5]: 107% | inhibition at 1 µM [6]: 6% | inhibition at 1 µM [7]: 104%

Cc1[nH]c2ccc(Cl)cc2c1C1=CCN(CCCCNS(=O)(=O)c2ccc(F)cc2)CC1 [Compound 368, N-[4-[4-(5-Chloro-2-methyl-1H-indol-3-yl)-3,6-dihydro-2H-pyridin-1-yl]butyl]-4-fluorobenzenesulphonamide]
inhibition at 1 µM [1]: 94% | inhibition at 1 µM [2]: 42% | inhibition at 1 µM [3]: -7% | inhibition at 1 µM [4]: 96% | inhibition at 1 µM [5]: 64% | inhibition at 1 µM [6]: 14% | inhibition at 1 µM [7]: 41%

O=S(=O)(NCCCCN1CCN(c2cccc3c2OCCO3)CC1)c1ccc2cc(Cl)ccc2c1 [Compound 387, 6-Chloro-N-[4-[4-(2,3-dihydro-1,4-benzodioxin-5-yl)piperazin-1-yl]butyl]naphthalene-2-sulphonamide]
inhibition at 1 µM [1]: 93% | α1 [%] [8]: 86% | inhibition at 1 µM [2]: 96% | inhibition at 1 µM [3]: 100% | inhibition at 1 µM [4]: 26% | inhibition at 1 µM [5]: 90% | inhibition at 1 µM [6]: -14%

O=S(=O)(NCCCCN1CCN(c2cccc3c2OCCO3)CC1)c1cccs1 [Compound 397, N-[4-[4-(2,3-Dihydro-1,4-benzodioxin-8-yl)piperazin-1-yl]butyl]thiophene-2-sulphonamide]
α1 [%] [8]: 92% | inhibition at 1 µM [3]: 95% | inhibition at 1 µM [5]: 13%

O=S(=O)(NCCCN1CCN(c2cccc3c2OCCO3)CC1)c1ccc(F)c(F)c1 [Compound 410, N-[3-[4-(2,3-Dihydro-1,4-benzodioxin-5-yl)piperazin-1-yl]propyl]-3,4-difluorobenzenesulphonamide]
α1 [%] [8]: 84% | inhibition at 1 µM [3]: 96% | inhibition at 1 µM [5]: 42%

O=S(=O)(NCCCN1CCN(c2cccc3c2OCCO3)CC1)c1cccc(Br)c1 [Compound 413, 3-Bromo-N-[3-[4-(2,3-dihydro-1,4-benzodioxin-5-yl)piperazin-1-yl]propyl]benzenesulphonamide]
α1 [%] [8]: 90% | inhibition at 1 µM [3]: 88% | inhibition at 1 µM [5]: 40%

O=c1[nH]c2cccc(N3CCN(CCCCNS(=O)(=O)c4ccc(F)cc4)CC3)c2[nH]1 [Compound 420, 4-Fluoro-N-[4-[4-(2-oxo-1,3-dihydrobenzimidazol-4-yl)piperazin-1-yl]butyl]benzenesulphonamide]
inhibition at 1 µM [1]: 97% | α1 [%] [8]: 82%

O=c1[nH]c2cccc(N3CCN(CCCCNS(=O)(=O)c4ccc(Cl)cc4)CC3)c2[nH]1 [Compound 421, 4-Chloro-N-[4-[4-(2-oxo-1,3-dihydrobenzimidazol-4-yl)piperazin-1-yl]butyl]benzenesulphonamide]
inhibition at 1 µM [1]: 94% | α1 [%] [8]: 88%

Cc1cccc(S(=O)(=O)NCCCCN2CCN(c3cccc4[nH]c(=O)[nH]c34)CC2)c1 [Compound 422, 3-Methyl-N-[4-[4-(2-oxo-1,3-dihydrobenzimidazol-4-yl)piperazin-1-yl]butyl]benzenesulphonamide]
inhibition at 1 µM [1]: 98% | α1 [%] [8]: 86%

O=S(=O)(NCCCCN1CC=C(c2c[nH]c3ccc(F)cc23)CC1)c1cccc(O)c1 [Compound 434, N-[4-[4-(5-Fluoro-1H-indol-3-yl)-3,6-dihydro-2H-pyridin-1-yl]butyl]-3-hydroxybenzenesulphonamide]
inhibition at 1 µM [1]: 98%

O=S(=O)(NCCCN1CC=C(c2c[nH]c3ccc(F)cc23)CC1)c1cccc(F)c1 [Compound 436, 3-Fluoro-N-[3-[4-(5-fluoro-1H-indol-3-yl)-3,6-dihydro-2H-pyridin-1-yl]propyl]benzenesulphonamide]
inhibition at 1 µM [1]: 96% | inhibition at 1 µM [3]: 85% | inhibition at 1 µM [5]: 56%

Cc1[nH]c2ccc(Cl)cc2c1C1=CCN(CCCNS(=O)(=O)c2ccc(Cl)cc2)CC1 [Compound 444, 4-Chloro-N-[3-[4-(5-chloro-2-methyl-1H-indol-3-yl)-3,6-dihydro-2H-pyridin-1-yl]propyl]-benzenesulphonamide]
inhibition at 1 µM [1]: 74% | α1 [%] [8]: 26% | inhibition at 1 µM [2]: 59% | inhibition at 1 µM [3]: 51% | inhibition at 1 µM [4]: 87% | inhibition at 1 µM [5]: 65% | inhibition at 1 µM [6]: 44%
